Source: PMC8370248, “Key Metabolic Enzymes Involved in Remdesivir Activation in Human Lung Cells” (Antimicrobial Agents and Chemotherapy, 2021)

Target: T1, CES1c (Homo sapiens, UniProt P23141)
T1 construct: purchased Corning Incorporated (Corning, NY); host or cells: baculovirus-infected insect cells (microsomal fraction, Supersomes)
T1 sequence (P23141 18-566 isoform P23141-3 limits assumed): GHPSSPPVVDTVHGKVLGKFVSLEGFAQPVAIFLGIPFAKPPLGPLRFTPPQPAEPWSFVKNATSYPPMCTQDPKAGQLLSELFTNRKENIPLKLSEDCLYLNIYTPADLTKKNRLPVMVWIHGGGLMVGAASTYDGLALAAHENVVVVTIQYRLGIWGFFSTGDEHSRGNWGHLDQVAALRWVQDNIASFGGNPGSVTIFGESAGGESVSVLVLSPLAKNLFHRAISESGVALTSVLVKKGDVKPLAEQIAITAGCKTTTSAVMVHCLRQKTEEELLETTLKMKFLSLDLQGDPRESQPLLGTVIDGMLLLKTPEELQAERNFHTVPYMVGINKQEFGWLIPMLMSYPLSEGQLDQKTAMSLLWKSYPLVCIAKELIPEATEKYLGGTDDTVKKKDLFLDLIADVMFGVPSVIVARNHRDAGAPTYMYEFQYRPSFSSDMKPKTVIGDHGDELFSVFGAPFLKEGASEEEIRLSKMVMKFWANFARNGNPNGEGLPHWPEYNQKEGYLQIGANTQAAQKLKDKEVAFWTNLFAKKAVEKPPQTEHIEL
Experiment: CES1c-catalyzed hydrolysis of RDV and control (substrate disappearance, LC-MS)
Assay type: in vitro ADME
Procedure: The catalytic activity of carboxylesterase 1b (CES1b), carboxylesterase 1c (CES1c), CES2, and CatA toward RDV hydrolysis was measured using protein-enriched subcellular fraction (CES isozymes) or recombinant proteins (CatA). The reaction rates were determined by monitoring the disappearance of RDV using a liquid chromatography-mass spectrometry (LC-MS) method.
RDV or positive-control substrates (oseltamivir for CES1 or procaine for CES2) were incubated with individual Supersome preparations (final CES concentration, 1.5 mg/ml) in 0.1 M potassium phosphate buffer (pH 7.4) at 37°C. Substrates were added to a final concentration of 1 μM to initiate the reaction. The final incubation volume was 250 μl. Aliquots were removed after incubation for 0, 10, 30, 60, and 120 min. The reactions were stopped by the addition of the quench solution containing the LC-MS internal standard (IS) (labetalol). Following protein precipitation and centrifugation, 150 μl of supernatant was dried down and reconstituted with 250 μl water. All samples were analyzed by an LC-MS, and the analyte/internal standard peak area ratio (PAR) values were used for quantification. Disappearance of RDV or positive-control compounds was monitored over the incubation time period. Three experiments were conducted with two replicates in each experiment, and data are reported as averages from the three experiments.
In all studies apart from those with CES1 and CatA with enzyme inhibitors, samples (10-μl aliquots) were injected with a Thermo Scientific autosampler. The LC instrumentation consisted of a Thermo Scientific Dionex UltiMate 3000 RS pump, and the LC column was a Waters Acquity UPLC BEH C18 (1.7 μm particle size, 2.1 by 50 mm). Mobile phases A and B were water 99.9% (vol/vol) containing 0.1% (vol/vol) formic acid, and acetonitrile 99.9% (vol/vol) containing 0.1% (vol/vol) formic acid, respectively, pumped at 0.2 ml/minute. Elution was achieved by a series of linear gradients over 2.33 min followed by reequilibration for 2.57 min. The MS instrument was a Thermo Q Exactive Hybrid Quadrupole-Orbitrap operating in positive or negative ionization mode as appropriate. This was calibrated on a weekly basis, and data were processed with GMSU 8.4.66 software by Gubbs Inc. (Alpharetta, GA). Mass tolerance of 5 ppm was used.

Question: With `CCC(CC)COC(=O)[C@H](C)N[P@](=O)(OC[C@H]1O[C@@](C#N)(c2ccc3c(N)ncnn23)[C@H](O)[C@@H]1O)Oc1ccccc1` [RDV, Remdesivir] as the compound, how does the half-life at 1 μM (human, CES1c Supersomes (protein-enriched subcellular fraction), 1 μM substrate, CES 1.5 mg/ml, pH 7.4, 37°C, read-out: t1/2, CES1c (converted)) read?
Answer: 7.7 min

Question: What about the “CES1c hydrolysis rate relative to oseltamivir” value (times faster than positive control oseltamivir) of the same compound?
Answer: 4 times
